According to patent US7635706B2, “5HT4-antagonistic 4-(aminomethyl)-piperidine benzamides” (Janssen Pharmaceutica NV, priority 2003, dated 2009):

These molecules were tested against T1, h5-HT4b (Homo sapiens, UniProt Q13639) (assay: 5HT4 antagonism: [3H]GR113808 binding to membranes of h5-HT4b-HEK 293 clone 9 cells). Conditions: [3H]GR113808 0.1 nM, h5-HT4b-HEK 293 membranes, 30 min at 25° C.
T1 construct: expressed in transfected cells; host or cells: HEK 293 (clone 9), membrane preparation
Procedure: h5-HT4b-HEK 293 clone 9 cells were cultured in 150 mm Petri dishes and washed twice with cold PBS. The cells were then scraped from the plates and suspended in 50 mM Tris-HCl buffer, pH 7.4 and harvested by centrifugation at 23,500 rpm for 10 minutes. The pellet was resuspended in 5 mM Tris-HCl, pH 7.4 and homogenized with an Ultra Turrax homogenizer. The membranes were collected by centrifugation at 30,000 rpm for 20 min, resuspended in 50 mM Tris-HCl pH 7.4 and stored at −80° C. For the experiment, assay mixtures (0.5 ml) contained 50 μl of the tritiated ligand (5-HT4 antagonist [^3H]GR113808 0.1 nM) and 0.4 ml membrane preparation (15 μg protein/ml). 50 μl of 10% DMSO was added for total binding. 50 μl of 1 μM of (+)-trans-(1-butyl-3-hydroxy4-piperidinyl)methyl 8-amino-7-chloro-2,3-dihydro-1,4-benzodioxin-5-carboxylate (a proprietary 5HT4 agonist of Janssen Pharmaceutica) was added for determination of non-specific binding.
The [^3H]GR113808 assay buffer was 50 mM HEPES-NaOH, pH 7.4. The mixtures were incubated for 30 min at 25° C. The incubation was terminated by filtration over a Unifilter 96 GF/B presoaked in 0.1% polyethylenimine, followed by six washing steps with 50 mM HEPES-NaOH, pH 7.4.

T1 sequence (Q13639 whole entry): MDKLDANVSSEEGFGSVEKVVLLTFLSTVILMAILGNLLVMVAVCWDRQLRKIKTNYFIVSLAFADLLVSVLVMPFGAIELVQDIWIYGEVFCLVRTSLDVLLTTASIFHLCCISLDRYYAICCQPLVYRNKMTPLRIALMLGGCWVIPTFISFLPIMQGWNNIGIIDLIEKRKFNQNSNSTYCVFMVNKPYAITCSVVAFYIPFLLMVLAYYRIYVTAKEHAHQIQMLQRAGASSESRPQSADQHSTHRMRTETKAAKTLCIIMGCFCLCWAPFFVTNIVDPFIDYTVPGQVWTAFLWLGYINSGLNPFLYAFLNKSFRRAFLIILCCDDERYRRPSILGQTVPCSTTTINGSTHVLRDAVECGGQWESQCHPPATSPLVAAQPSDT

Row | IC50 [nM] | SMILES
1 | 24 | COc1c(Cl)cc(C(=O)NC[C@@H]2CCN(CC3OCCO3)C[C@H]2O)c2c1OCCCO2 [compound 18]
2 | 263 | COc1c(Cl)cc(C(=O)NC[C@@H]2CCN(CCn3ccn(C(C)C)c3=O)C[C@H]2OC)c2c1OCCO2 [compound 70]
3 | 2.04 | CNCCCCN1CC[C@@H](CNC(=O)c2cc(Cl)c(Cl)c3c2OCCCO3)[C@H](O)C1 [compound 90]
4 | 72.4 | COc1ccc(C(=O)NC[C@@H]2CCN(CCCC#N)C[C@H]2OC)c2c1OCCCO2 [compound 112]
5 | 5.89 | O=C(NC[C@@H]1CCNC[C@H]1O)c1cc(Cl)c(Br)c2c1OCCCO2 [compound 11]
6 | 13.8 | COc1ccc(C(=O)NC[C@@H]2CCN(CCOCCO)C[C@H]2O)c2c1OCCCO2 [compound 127]
7 | 5.89 | CCOc1ccc(C(=O)NC[C@@H]2CCN(CCCC(N)=O)C[C@H]2O)c2c1OCCCO2 [compound 146]
8 | 12.6 | COc1c(Cl)cc(C(=O)NC[C@@H]2CCN(CCCC#N)C[C@H]2O)c2c1OCCO2 [compound 30]
9 | 38 | CNCCCN1CC[C@@H](CNC(=O)c2cc(Cl)c(OC)c3c2OCCCO3)[C@H](O)C1 [compound 36]
10 | 1.86 | Cc1ccc(C(=O)NC[C@@H]2CCN(CCCC#N)C[C@H]2O)c2c1OCCCO2 [compound 94]
11 | 7.41 | CO[C@@H]1CN(CCCO)CC[C@H]1CNC(=O)c1cc(Cl)c(Br)c2c1OCCCO2 [compound 45]
12 | 155 | COc1ccc(C(=O)NC[C@H]2CCN(CCCC#N)C[C@H]2O)c2c1OCCCO2 [compound 137]
13 | 30.9 | COc1c(Cl)cc(C(=O)NC[C@@H]2CCN(CCC3OCCO3)C[C@H]2OC)c2c1OCCO2 [compound 87]
14 | 79.4 | COc1c(Cl)cc(C(=O)NC[C@@H]2CCN(CCCC#N)C[C@H]2OC)c2c1OCCCO2 [compound 69]
15 | 1.41 | CCCCN1CC[C@@H](CNC(=O)c2cc(Cl)c(Br)c3c2OCCCO3)[C@H](O)C1 [compound 22]
16 | 2.63 | COCCCN1CC[C@@H](CNC(=O)c2cc(Cl)c(OC)c3c2OCCCO3)[C@H](O)C1 [compound 14]
17 | 11.2 | COc1ccc(C(=O)NCC2(O)CCN(CCCC#N)CC2)c2c1OCCCO2 [compound 133]
18 | 8.13 | CO[C@@H]1CNCC[C@H]1CNC(=O)c1cc(Cl)c(Cl)c2c1OCCCO2 [compound 49]
19 | 6.46 | COCCCN1CC[C@@H](CNC(=O)c2cc(Cl)c(OC)c3c2OCCO3)[C@H](O)C1 [compound 6]
20 | 3.02 | N#CCCCN1CC[C@@H](CNC(=O)c2cc(Cl)c(Br)c3c2OCCCO3)[C@H](O)C1 [compound 10]
21 | 2.63 | COCCCN1CC[C@@H](CNC(=O)c2ccc(OC)c3c2OCCCO3)[C@H](O)C1 [compound 98]
22 | 6.03 | CO[C@@H]1CN(CCC2OCCO2)CC[C@H]1CNC(=O)c1cc(Cl)c(Br)c2c1OCCCO2 [compound 46]
23 | 182 | COCCCCN1CCC(O)(CNC(=O)c2ccc(OC)c3c2OCCCO3)CC1 [compound 135]
24 | 56.2 | COc1ccc(C(=O)NC[C@@H]2CCNC[C@H]2O)c2c1OCCCO2 [compound 97]

Row | IC50 [nM] | SMILES
25 | 1.78 | O=C(NC[C@@H]1CCN(CCCO)C[C@H]1O)c1cc(Cl)c(Br)c2c1OCCCO2 [compound 24]
26 | 174 | CNCCCN1CC[C@@H](CNC(=O)c2cc(Cl)c(OC)c3c2OCCO3)[C@H](OC)C1 [compound 78]
27 | 3.09 | CO[C@@H]1CN(CCCO)CC[C@H]1CNC(=O)c1cc(Cl)c(Cl)c2c1OCCCO2 [compound 75]
28 | 8.71 | COc1c(Cl)cc(C(=O)NC[C@@H]2CCN(CC3CCCO3)C[C@H]2O)c2c1OCCO2 (some centres unmarked) [compound 32]
29 | 501 | COc1ccc(C(=O)NCC2(O)CCN(CCCC(N)=O)CC2)c2c1OCCCO2 [compound 147]
30 | 22.4 | COCCCN1CC[C@@H](CNC(=O)c2cc(Cl)c(OC)c3c2OCCCO3)[C@H](OC)C1 [compound 67]
31 | 11 | CCCCN1CC[C@@H](CNC(=O)c2ccc(OC)c3c2OCCCO3)[C@H](OC)C1 [compound 123]
32 | 27.5 | CNCCN1CC[C@@H](CNC(=O)c2cc(Cl)c(Br)c3c2OCCCO3)[C@H](O)C1 [compound 42]
33 | 4.9 | O=C(NC[C@@H]1CCN(CCC2OCCO2)C[C@H]1O)c1cc(Cl)c(Br)c2c1OCCCO2 [compound 27]
34 | 1.02 | Cc1ccc(C(=O)NC[C@@H]2CCN(CC3CCCO3)C[C@H]2O)c2c1OCCCO2 (some centres unmarked) [compound 95]
35 | 2.24 | O=C(NC[C@@H]1CCN(CCC2OCCO2)C[C@H]1O)c1cc(Cl)c(Cl)c2c1OCCCO2 [compound 88]
36 | 20 | COc1c(Cl)cc(C(=O)NC[C@@H]2CCN(CCCO)C[C@H]2OC)c2c1OCCO2 [compound 53]
37 | 16.2 | COc1c(Cl)cc(C(=O)NC[C@@H]2CCN(CC3CCCO3)C[C@H]2OC)c2c1OCCO2 (some centres unmarked) [compound 41]
38 | 3.24 | COc1ccc(C(=O)NC[C@@H]2CCN(CCCCC(N)=O)C[C@H]2O)c2c1OCCO2 [compound 125]
39 | 1 | COc1c(Cl)cc(C(=O)NC[C@@H]2CCN(CCCC#N)C[C@H]2O)c2c1OCCCO2 [compound 34]
40 | 77.6 | COc1c(Cl)cc(C(=O)NC[C@@H]2CCNC[C@H]2O)c2c1OCCO2 [compound 8]
41 | 28.2 | CCN1CC[C@@H](CNC(=O)c2ccc(OC)c3c2OCCCO3)[C@H](OC)C1 [compound 120]
42 | 166 | COc1c(Cl)cc(C(=O)NC[C@@H]2CCN(CCOCCO)C[C@H]2OC)c2c1OCCO2 [compound 55]
43 | 9.55 | COc1c(Cl)cc(C(=O)NC[C@@H]2CCN(CCOCCO)C[C@H]2O)c2c1OCCO2 [compound 15]
44 | 3.89 | O=C(NC[C@@H]1CCN(CCOCCO)C[C@H]1O)c1cc(Cl)c(Cl)c2c1OCCCO2 [compound 21]
45 | 8.91 | CCCCN1CC[C@@H](CNC(=O)c2cc(Cl)c(OC)c3c2OCCO3)[C@H](OC)C1 [compound 77]
46 | 14.1 | CNCCCCN1CC[C@@H](CNC(=O)c2cc(Cl)c(OC)c3c2OCCCO3)[C@H](O)C1 [compound 40]
47 | 9.77 | CNCCCN1CC[C@@H](CNC(=O)c2cc(Cl)c(Br)c3c2OCCCO3)[C@H](OC)C1 [compound 63]
48 | 490 | CNCCCN1CC[C@@H](CNC(=O)c2cc(Cl)c(OC)c3c2OCCCO3)[C@H](OC)C1 [compound 62]

Row | IC50 [nM] | SMILES
49 | 93.3 | COc1c(Cl)cc(C(=O)NC[C@@H]2CCN(CCOCCO)C[C@H]2OC)c2c1OCCCO2 [compound 68]
50 | 21.4 | COc1c(Cl)cc(C(=O)NC[C@@H]2CCN(CCC3OCCO3)C[C@H]2OC)c2c1OCCCO2 [compound 72]
51 | 6.17 | COc1ccc(C(=O)NC[C@@H]2CCN(CCCC#N)C[C@H]2O)c2c1OCCO2 [compound 138]
52 | 1.2 | COc1c(Cl)cc(C(=O)NC[C@@H]2CCN(CC3CCCO3)C[C@H]2O)c2c1OCCCO2 (some centres unmarked) [compound 33]
53 | 0.977 | Cc1ccc(C(=O)NC[C@@H]2CCN(CCCNS(C)(=O)=O)C[C@H]2O)c2c1OCCCO2 [compound 96]
54 | 43.7 | COc1c(Cl)cc(C(=O)NC[C@@H]2CCNC[C@H]2O)c2c1OCCCO2 [compound 12]
55 | 6.46 | COc1c(Cl)cc(C(=O)NC[C@@H]2CCN(CCC3OCCO3)C[C@H]2O)c2c1OCCCO2 [compound 29]
56 | 0.331 | CCCCN1CC[C@@H](CNC(=O)c2ccc(OC)c3c2OCCCO3)[C@H](O)C1 [compound 100]
57 | 2.95 | COCCCN1CC[C@@H](CNC(=O)c2cc(Cl)c(Br)c3c2OCCCO3)[C@H](O)C1 [compound 38]
58 | 0.813 | Cc1ccc(C(=O)NC[C@@H]2CCN(CCCCOc3ccc(S(N)(=O)=O)cc3)C[C@H]2O)c2c1OCCCO2 [compound 106]
59 | 3.63 | O=C(NC[C@@H]1CCNC[C@H]1O)c1cc(Cl)c(Cl)c2c1OCCCO2 [compound 20]
60 | 457 | COc1c(Cl)cc(C(=O)NC[C@@H]2CCNC[C@H]2OC)c2c1OCCO2 [compound 52]
61 | 3.72 | COCCCN1CC[C@@H](CNC(=O)c2cc(Cl)c(Cl)c3c2OCCCO3)[C@H](OC)C1 [compound 59]
62 | 5.13 | CO[C@@H]1CN(CCOCCO)CC[C@H]1CNC(=O)c1cc(Cl)c(Br)c2c1OCCCO2 [compound 51]
63 | 4.37 | CO[C@@H]1CN(CC2CCCO2)CC[C@H]1CNC(=O)c1cc(Cl)c(Br)c2c1OCCCO2 (some centres unmarked) [compound 50]
64 | 3.89 | CO[C@@H]1CN(CCCC#N)CC[C@H]1CNC(=O)c1cc(Cl)c(Cl)c2c1OCCCO2 [compound 56]
65 | 229 | COc1c(Cl)cc(C(=O)NC[C@@H]2CCN(CCn3ccn(C(C)C)c3=O)C[C@H]2OC)c2c1OCCCO2 [compound 79]
66 | 4.47 | CNCCCCN1CC[C@@H](CNC(=O)c2cc(Cl)c(Br)c3c2OCCCO3)[C@H](OC)C1 [compound 65]
67 | 2.09 | N#CCCCN1CC[C@@H](CNC(=O)c2cc(Cl)c(Cl)c3c2OCCCO3)[C@H](O)C1 [compound 89]
68 | 5.5 | COc1c(Cl)cc(C(=O)NC[C@@H]2CCN(CCCO)C[C@H]2O)c2c1OCCO2 [compound 5]
69 | 1.78 | Cc1ccc(C(=O)NC[C@@H]2CCN(CCOc3ccc(S(N)(=O)=O)cc3)C[C@H]2O)c2c1OCCCO2 [compound 108]
70 | 6.76 | CNCCCCN1CC[C@@H](CNC(=O)c2ccc(OC)c3c2OCCO3)[C@H](O)C1 [compound 118]
71 | 28.2 | Cc1ccc(C(=O)NC[C@@H]2CCNC[C@H]2O)c2c1OCCCO2 [compound 104]
